According to ChEMBL document CHEMBL1909046, “DrugMatrix in vitro pharmacology data”:

Legend:
[1] = target: T1, Alpha-2A adrenergic receptor (Homo sapiens, UniProt P08913); type: cell membranes, Sf9, Membrane
T1 sequence (P08913 whole entry): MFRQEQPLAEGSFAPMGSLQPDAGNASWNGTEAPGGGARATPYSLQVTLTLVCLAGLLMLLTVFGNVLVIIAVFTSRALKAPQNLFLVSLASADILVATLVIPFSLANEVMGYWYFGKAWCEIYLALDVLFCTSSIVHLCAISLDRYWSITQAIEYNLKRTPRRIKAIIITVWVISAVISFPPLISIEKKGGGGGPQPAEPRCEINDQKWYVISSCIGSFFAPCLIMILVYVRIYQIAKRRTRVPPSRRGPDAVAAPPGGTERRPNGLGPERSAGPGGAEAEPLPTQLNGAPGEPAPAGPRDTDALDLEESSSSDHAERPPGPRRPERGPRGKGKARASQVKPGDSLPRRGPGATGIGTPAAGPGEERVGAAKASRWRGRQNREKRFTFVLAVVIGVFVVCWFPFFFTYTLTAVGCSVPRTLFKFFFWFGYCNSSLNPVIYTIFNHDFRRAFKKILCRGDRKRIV

[2] = target: Substance-P receptor (Homo sapiens, UniProt P25103); type: cell membranes, CHO, Membrane
[3] = target: Prostaglandin G/H synthase 1 (Homo sapiens, UniProt P23219); experiment: biochemical; type: tissue-based, Platelet;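 further: inhibition of COX-1 enzyme activity, with arachidonic acid supplied as substrate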
[4] = target: Melanocortin receptor 4 (Homo sapiens, UniProt P32245); type: cell membranes, Membrane; conditions: hek293
[5] = target: T2, Angiotensin-converting enzyme (Oryctolagus cuniculus, UniProt P12822); type: tissue-based, Lung;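 further: enzymatic inhibition of angiotensin-converting enzyme measured with FAPGG as the substrate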
T2 sequence (P12822 whole entry): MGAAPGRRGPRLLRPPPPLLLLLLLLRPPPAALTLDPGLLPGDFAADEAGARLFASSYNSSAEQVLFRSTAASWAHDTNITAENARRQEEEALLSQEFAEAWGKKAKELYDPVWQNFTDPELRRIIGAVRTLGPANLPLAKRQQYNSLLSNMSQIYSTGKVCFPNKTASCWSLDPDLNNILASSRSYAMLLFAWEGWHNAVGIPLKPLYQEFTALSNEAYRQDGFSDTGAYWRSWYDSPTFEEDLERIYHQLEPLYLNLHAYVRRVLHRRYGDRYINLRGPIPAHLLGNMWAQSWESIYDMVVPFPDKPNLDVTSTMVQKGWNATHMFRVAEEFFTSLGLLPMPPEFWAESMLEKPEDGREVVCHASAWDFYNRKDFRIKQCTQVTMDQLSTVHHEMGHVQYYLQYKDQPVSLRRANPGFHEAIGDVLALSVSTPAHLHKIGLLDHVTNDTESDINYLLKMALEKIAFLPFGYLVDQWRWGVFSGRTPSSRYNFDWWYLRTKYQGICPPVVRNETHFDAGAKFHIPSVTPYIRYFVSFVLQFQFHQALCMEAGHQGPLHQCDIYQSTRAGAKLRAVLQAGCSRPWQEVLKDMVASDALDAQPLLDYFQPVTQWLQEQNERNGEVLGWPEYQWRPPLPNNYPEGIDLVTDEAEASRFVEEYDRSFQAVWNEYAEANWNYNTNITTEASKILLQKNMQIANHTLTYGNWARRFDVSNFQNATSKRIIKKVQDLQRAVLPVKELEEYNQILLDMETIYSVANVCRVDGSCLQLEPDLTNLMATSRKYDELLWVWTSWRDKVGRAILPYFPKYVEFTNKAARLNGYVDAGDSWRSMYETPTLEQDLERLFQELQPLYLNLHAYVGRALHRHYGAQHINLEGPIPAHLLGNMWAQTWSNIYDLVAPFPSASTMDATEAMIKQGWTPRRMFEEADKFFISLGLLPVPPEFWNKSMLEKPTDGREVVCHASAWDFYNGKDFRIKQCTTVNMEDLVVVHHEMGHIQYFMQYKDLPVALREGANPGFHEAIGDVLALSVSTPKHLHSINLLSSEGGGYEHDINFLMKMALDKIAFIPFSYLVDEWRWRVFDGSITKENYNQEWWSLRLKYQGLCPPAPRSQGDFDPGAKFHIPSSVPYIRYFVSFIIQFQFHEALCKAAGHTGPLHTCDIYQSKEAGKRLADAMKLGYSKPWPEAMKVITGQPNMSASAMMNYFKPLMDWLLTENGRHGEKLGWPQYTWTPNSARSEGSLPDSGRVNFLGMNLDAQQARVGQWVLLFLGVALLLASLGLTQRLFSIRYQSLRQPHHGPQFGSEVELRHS
Further: in other assays of this panel Not Active means under 50% inhibition at 10 µM.

Sequence of Melanocortin receptor 4 (P32245 whole entry): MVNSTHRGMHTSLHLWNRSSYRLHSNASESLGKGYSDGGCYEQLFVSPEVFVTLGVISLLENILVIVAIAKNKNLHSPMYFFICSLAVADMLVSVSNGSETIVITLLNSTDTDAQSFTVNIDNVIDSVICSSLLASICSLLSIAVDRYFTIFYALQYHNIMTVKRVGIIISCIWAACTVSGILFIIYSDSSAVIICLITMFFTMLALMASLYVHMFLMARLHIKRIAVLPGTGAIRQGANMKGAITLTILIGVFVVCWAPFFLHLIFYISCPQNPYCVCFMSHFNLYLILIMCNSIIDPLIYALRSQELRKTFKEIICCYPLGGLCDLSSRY
Sequence of Prostaglandin G/H synthase 1 (P23219 whole entry): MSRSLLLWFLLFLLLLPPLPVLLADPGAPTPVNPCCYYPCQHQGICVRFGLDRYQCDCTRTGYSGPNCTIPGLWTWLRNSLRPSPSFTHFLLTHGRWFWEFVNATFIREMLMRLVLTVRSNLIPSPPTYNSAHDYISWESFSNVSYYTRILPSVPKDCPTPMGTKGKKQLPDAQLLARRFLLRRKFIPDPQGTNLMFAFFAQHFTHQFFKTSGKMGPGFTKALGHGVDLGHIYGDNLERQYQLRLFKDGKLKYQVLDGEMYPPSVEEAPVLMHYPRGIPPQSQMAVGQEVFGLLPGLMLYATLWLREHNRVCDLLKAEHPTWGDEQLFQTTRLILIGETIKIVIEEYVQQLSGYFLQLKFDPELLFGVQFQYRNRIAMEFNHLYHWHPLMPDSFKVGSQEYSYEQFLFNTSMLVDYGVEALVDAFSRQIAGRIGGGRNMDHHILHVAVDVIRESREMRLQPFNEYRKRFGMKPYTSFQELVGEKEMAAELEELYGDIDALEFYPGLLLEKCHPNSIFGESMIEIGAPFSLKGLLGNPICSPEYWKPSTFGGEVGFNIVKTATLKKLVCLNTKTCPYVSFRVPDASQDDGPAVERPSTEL
Sequence of Substance-P receptor (P25103 whole entry): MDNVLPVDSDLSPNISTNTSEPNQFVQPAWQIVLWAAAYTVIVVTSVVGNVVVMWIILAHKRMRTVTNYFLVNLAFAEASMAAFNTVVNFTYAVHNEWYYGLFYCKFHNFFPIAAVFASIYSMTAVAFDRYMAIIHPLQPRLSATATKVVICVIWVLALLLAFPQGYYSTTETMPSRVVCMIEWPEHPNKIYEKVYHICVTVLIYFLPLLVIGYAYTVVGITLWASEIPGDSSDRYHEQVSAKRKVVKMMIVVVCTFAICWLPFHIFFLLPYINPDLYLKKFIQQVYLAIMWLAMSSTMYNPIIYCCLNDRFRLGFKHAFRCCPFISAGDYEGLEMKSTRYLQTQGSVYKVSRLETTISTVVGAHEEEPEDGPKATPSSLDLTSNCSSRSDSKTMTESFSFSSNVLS

Molecule	IC50 ([1]; sf9)	IC50 ([2]; cho)	IC50 ([3]; platelet)	IC50 [4]	IC50 [5]	IC50 ([1]; read-out: IC50)	Ki ([1]; read-out: Ki)	IC50 ([2]; read-out: IC50)	Ki ([2]; read-out: Ki)	IC50 ([3]; read-out: IC50)	Ki ([1]; sf9)	Ki ([2]; cho)	Ki ([3]; platelet)	Ki [4]	Ki [5]
CCCCC(=O)N(Cc1ccc(-c2ccccc2-c2nnn[nH]2)cc1)[C@H](C(=O)O)C(C)C	Not Active	Not Active	Not Active	Not Active	Not Active										
O=C(O)COc1ccc(C(=O)c2cccs2)c(Cl)c1Cl	Not Active	Not Active	Not Active	Not Active	Not Active										
CN1[C@@H]2CC[C@H]1C[C@@H](OC(c1ccccc1)c1ccccc1)C2 [BENZTROPINE]		Not Active	Not Active	Not Active	Not Active										
C[C@@](Cc1ccc(O)c(O)c1)(NN)C(=O)O.O [CARBIDOPA]	Not Active	Not Active	Not Active	Not Active	Not Active										
CN1CCN(C2=Nc3cc(Cl)ccc3Nc3ccccc32)CC1 [CLOZAPINE]		Not Active	Not Active	Not Active	Not Active										
CC(C)NC[C@@H](O)COc1cccc2ccccc12 [DEXPROPRANOLOL]	Not Active	Not Active	Not Active	Not Active	Not Active										
CC(C)NC[C@H](O)COc1cccc2ccccc12 [LEVOPROPRANOLOL]	Not Active	Not Active	Not Active	Not Active	Not Active										
O=C(O)CCCCC1CCSS1 (stereo not drawn) [LIPOIC ACID, ALPHA]	Not Active	Not Active	Not Active	Not Active	Not Active										
CN(C)C(=O)C(CCN1CCC(O)(c2ccc(Cl)cc2)CC1)(c1ccccc1)c1ccccc1 [LOPERAMIDE]	Not Active	Not Active	Not Active	Not Active	Not Active										
Clc1ccc(COC(Cn2ccnc2)c2ccc(Cl)cc2Cl)c(Cl)c1 (stereo not given) [MICONAZOLE]			Not Active		Not Active	3970 nM	1490 nM	6810 nM	3720 nM						
Oc1ccc2c3c1O[C@H]1[C@@H](O)CC[C@@]4(O)[C@@H](C2)N(CC2CCC2)CC[C@]314 [NALBUPHINE]	Not Active	Not Active	Not Active	Not Active	Not Active										
C[C@]12C=CC(=O)C=C1CC[C@@H]1[C@@H]2C(=O)C[C@@]2(C)[C@H]1CC[C@]2(O)C(=O)CO [PREDNISONE]	Not Active	Not Active	Not Active	Not Active	Not Active										
OCCOCCN1CCN(C2=Nc3ccccc3Sc3ccccc32)CC1 [QUETIAPINE]		Not Active	Not Active	Not Active	Not Active										
COC(=O)[C@H]1[C@H]2C[C@@H]3c4[nH]c5cc(OC)ccc5c4CCN3C[C@H]2C[C@@H](OC(=O)c2cc(OC)c(OC)c(OC)c2)[C@@H]1OC [RESERPINE]	Not Active	Not Active	Not Active	Not Active	Not Active										
O=C(O)c1ccccc1O [SALICYLIC ACID]	Not Active	Not Active	Not Active	Not Active	Not Active										
C[S+]([O-])c1ccc(-c2nc(-c3ccncc3)c(-c3ccc(F)cc3)[nH]2)cc1 (stereo not given) [SB-203580]	Not Active	Not Active	Not Active	Not Active	Not Active										
CC1CCC(NC(=O)N(CCCl)N=O)CC1 (stereo not given) [SEMUSTINE]		Not Active	Not Active	Not Active	Not Active	4810 nM	1800 nM								
O=C1C[C@@H]2OCC=C3CN4CC[C@]56c7ccccc7N1[C@H]5[C@H]2[C@H]3C[C@H]46 [STRYCHNINE]	Not Active	Not Active	Not Active	Not Active	Not Active										
C[N+](C)(C)CCOC(=O)CCC(=O)OCC[N+](C)(C)C.[Cl-].[Cl-] [SUCCINYLCHOLINE CHLORIDE]	Not Active	Not Active	Not Active	Not Active	Not Active										
Nc1ccc(S(=O)(=O)NC(=O)c2ccccc2)cc1 [SULFABENZAMIDE]	Not Active	Not Active	Not Active	Not Active	Not Active										
CCCCCCCCNC(C)C(O)c1ccc(SC(C)C)cc1 (stereo not given) [SULOCTIDIL]		Not Active	Not Active	Not Active	Not Active	2020 nM	759 nM								
O=c1[nH]c(=O)n(C2CCCO2)cc1F (stereo not given) [TEGAFUR]	Not Active	Not Active	Not Active	Not Active	Not Active										
CC(=N)S [THIOACETAMIDE]	Not Active	Not Active	Not Active	Not Active	Not Active										
Cc1ccc(C(=O)c2ccc(CC(=O)O)n2C)cc1 [TOLMETIN]	Not Active	Not Active		Not Active	Not Active					41 nM					
CC(=O)OCC(COC(C)=O)OC(C)=O [TRIACETIN]	Not Active	Not Active	Not Active	Not Active	Not Active										
CN1CCN(CCCN2c3ccccc3Sc3ccc(C(F)(F)F)cc32)CC1 [TRIFLUOPERAZINE]	Not Active	Not Active	Not Active	Not Active	Not Active										
TRANSPLATIN	Not Active	Not Active	Not Active	Not Active	Not Active						Not Active	Not Active	Not Active	Not Active	Not Active
ZIRCONIUM(IV) CHLORIDE	Not Active	Not Active	Not Active	Not Active	Not Active						Not Active	Not Active	Not Active	Not Active	Not Active
